Measured values from the supplement of paper PMC10307832.

Compound: COc1nc(N)nc2c1ncn2[C@@H]1O[C@H](CO)[C@@H](O)[C@@H]1O [Nelarabine] + C[C@@H](Oc1cc(-c2cnn(C3CCNCC3)c2)cnc1N)c1c(Cl)ccc(F)c1Cl [Crizotinib] (partner 1 µM)
Assay: relative viability (nuclei count vs DMSO), 5 days (fraction); higher = more cells survive
Conditions: first compound 0.01 µM
Procedure, shortened: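 After 5 days of treatment, lung cancer cells in 1536-well plates were fixed and stained in a single step (final 0.05% Triton X-100, 1% formaldehyde, 1 ug/ml Hoechst) and their nuclei counted on 4× images. Treatment had been applied by pin tool the day after seeding as one drug alone or as a fixed anchor-drug dose with five library-drug doses (not always all listed) in √10 steps. Relative viability is the nuclei count of treated wells divided by that of vehicle wells, and values are medians of duplicate plates.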

Going from NCI-H1993 to NCI-H2009, the relative viability rises from 0.96 to 1.12.

Going from NCI-H2023 to NCI-H2085, the relative viability rises from 0.831 to 0.966.

First: NCI-H2087
Second: NCI-H2126
The relative viability of the first is higher: 1.22 for the first, 1.19 for the second.

Going from NCI-H2347 to NCI-H2405, the relative viability rises from 0.812 to 0.918.

Compared with NCI-H3122, PC-3 [JPC-3] is higher in relative viability: 0.265 for the first, 1.15 for the second.

Going from PC-14 to RERF-LC-KJ, the relative viability falls from 0.909 to 0.871.

First: SK-LU-1
Second: SW 1573
The relative viability of the first is higher: 1.27 for the first, 0.788 for the second.

UMC-11 was tested, and the relative viability was 0.52.

Same assay, conditions: first compound 0.03162 µM

Compared with NCI-H460, NCI-H520 is lower in relative viability: 1.1 for the first, 0.519 for the second.

Compared with NCI-H596, NCI-H647 is higher in relative viability: 1.15 for the first, 1.22 for the second.

First: NCI-H650
Second: NCI-H661
The relative viability of the first is lower: 0.548 for the first, 0.877 for the second.

First: NCI-H727
Second: NCI-H838
The relative viability of the first is higher: 1.06 for the first, 0.575 for the second.

Going from NCI-H1355 to NCI-H1437, the relative viability falls from 0.879 to 0.844.

Going from NCI-H1650 to NCI-H1651, the relative viability rises from 0.809 to 0.818.

First: NCI-H1666
Second: NCI-H1734
The relative viability of the first is higher: 0.679 for the first, 0.668 for the second.

First: NCI-H1755
Second: NCI-H1915
The relative viability of the first is lower: 0.908 for the first, 0.941 for the second.

Compared with NCI-H1975, NCI-H1993 is lower in relative viability: 0.91 for the first, 0.891 for the second.

First: NCI-H2009
Second: NCI-H2023
The relative viability of the first is higher: 0.99 for the first, 0.672 for the second.

Compared with NCI-H2085, NCI-H2087 is higher in relative viability: 0.618 for the first, 0.965 for the second.

Compared with NCI-H2126, NCI-H2347 is lower in relative viability: 1.07 for the first, 0.547 for the second.

First: NCI-H2405
Second: NCI-H3122
The relative viability of the first is higher: 0.824 for the first, 0.197 for the second.

First: PC-3 [JPC-3]
Second: PC-14
The relative viability of the first is higher: 1.02 for the first, 0.89 for the second.

Going from RERF-LC-KJ to SK-LU-1, the relative viability falls from 0.954 to 0.518.

Compared with SW 1573, UMC-11 is lower in relative viability: 0.769 for the first, 0.499 for the second.

Same assay, conditions: first compound 0.1 µM

Going from NCI-H460 to NCI-H520, the relative viability falls from 1.02 to 0.871.

Going from NCI-H596 to NCI-H647, the relative viability rises from 0.96 to 1.13.

First: NCI-H650
Second: NCI-H661
The relative viability of the first is lower: 0.613 for the first, 0.989 for the second.

First: NCI-H727
Second: NCI-H838
The relative viability of the first is lower: 0.765 for the first, 0.766 for the second.

Going from NCI-H1355 to NCI-H1437, the relative viability falls from 1.02 to 0.912.

First: NCI-H1650
Second: NCI-H1651
The relative viability of the first is higher: 0.999 for the first, 0.902 for the second.

Compared with NCI-H1666, NCI-H1734 is lower in relative viability: 0.949 for the first, 0.568 for the second.

Compared with NCI-H1755, NCI-H1792 is higher in relative viability: 0.874 for the first, 1.29 for the second.

First: NCI-H1915
Second: NCI-H1975
The relative viability of the first is lower: 0.953 for the first, 1.11 for the second.

Compared with NCI-H1993, NCI-H2009 is higher in relative viability: 0.775 for the first, 0.971 for the second.

Going from NCI-H2023 to NCI-H2085, the relative viability rises from 0.59 to 0.766.

Compared with NCI-H2087, NCI-H2126 is higher in relative viability: 0.88 for the first, 1.01 for the second.

Compared with NCI-H2347, NCI-H2405 is higher in relative viability: 0.654 for the first, 0.769 for the second.

First: PC-3 [JPC-3]
Second: PC-14
The relative viability of the first is higher: 1.01 for the first, 0.875 for the second.

First: RERF-LC-KJ
Second: SK-LU-1
The relative viability of the first is lower: 0.82 for the first, 1.04 for the second.

Going from SW 1573 to UMC-11, the relative viability falls from 0.745 to 0.476.

Same assay, conditions: first compound 0.3162 µM

Compared with NCI-H460, NCI-H520 is lower in relative viability: 1.08 for the first, 1.07 for the second.

Going from NCI-H596 to NCI-H647, the relative viability rises from 1.04 to 1.41.

First: NCI-H650
Second: NCI-H661
The relative viability of the first is lower: 0.693 for the first, 0.973 for the second.

First: NCI-H727
Second: NCI-H838
The relative viability of the first is lower: 0.94 for the first, 1.02 for the second.

Compared with NCI-H1355, NCI-H1437 is lower in relative viability: 1.15 for the first, 0.895 for the second.

Compared with NCI-H1650, NCI-H1651 is lower in relative viability: 0.981 for the first, 0.891 for the second.

First: NCI-H1666
Second: NCI-H1734
The relative viability of the first is higher: 0.975 for the first, 0.772 for the second.

First: NCI-H1755
Second: NCI-H1792
The relative viability of the first is lower: 0.969 for the first, 1.15 for the second.

Going from NCI-H1915 to NCI-H1975, the relative viability rises from 0.916 to 1.08.

Compared with NCI-H1993, NCI-H2009 is higher in relative viability: 0.93 for the first, 1.08 for the second.

Going from NCI-H2023 to NCI-H2085, the relative viability rises from 0.578 to 0.88.

First: NCI-H2087
Second: NCI-H2126
The relative viability of the first is lower: 0.819 for the first, 1.05 for the second.

Compared with NCI-H2347, NCI-H2405 is higher in relative viability: 0.649 for the first, 0.784 for the second.

First: NCI-H3122
Second: PC-3 [JPC-3]
The relative viability of the first is lower: 0.301 for the first, 0.977 for the second.

First: PC-14
Second: RERF-LC-KJ
The relative viability of the first is lower: 0.832 for the first, 0.846 for the second.

Going from SK-LU-1 to SW 1573, the relative viability falls from 1.01 to 0.733.

UMC-11 was tested, and the relative viability was 0.652.

Same assay, conditions: first compound 1 µM

First: NCI-H460
Second: NCI-H520
The relative viability of the first is higher: 1.05 for the first, 0.851 for the second.

First: NCI-H596
Second: NCI-H647
The relative viability of the first is lower: 1.12 for the first, 1.14 for the second.

Compared with NCI-H650, NCI-H661 is higher in relative viability: 0.746 for the first, 0.934 for the second.

First: NCI-H727
Second: NCI-H838
The relative viability of the first is higher: 0.865 for the first, 0.792 for the second.

First: NCI-H1355
Second: NCI-H1437
The relative viability of the first is higher: 1.08 for the first, 0.905 for the second.

First: NCI-H1650
Second: NCI-H1651
The relative viability of the first is lower: 0.847 for the first, 0.899 for the second.

First: NCI-H1666
Second: NCI-H1734
The relative viability of the first is higher: 1.03 for the first, 0.804 for the second.

Compared with NCI-H1755, NCI-H1792 is higher in relative viability: 0.946 for the first, 1.03 for the second.

Going from NCI-H1915 to NCI-H1975, the relative viability rises from 0.881 to 1.1.

Going from NCI-H1993 to NCI-H2009, the relative viability rises from 1.02 to 1.05.

Going from NCI-H2023 to NCI-H2085, the relative viability rises from 0.605 to 0.965.

Going from NCI-H2087 to NCI-H2126, the relative viability rises from 0.84 to 0.998.

Going from NCI-H2347 to NCI-H2405, the relative viability falls from 0.833 to 0.818.
